# According to article PMC12152883, “Bile acids inhibit equilibrative adenosine transport to alter adenosine receptor signaling in cholestasis” (The Journal of Biological Chemistry, 2025):
# Experiments:
# cAMP = cAMP levels in CA-treated HeLa cell lysate; type: cell-based; details: 100 μM CA, 14 h; control 0.96 ± 0.14
# PKC = PKC activity in CA-treated HeLa cells; type: cell-based; details: 100 μM CA, 14 h; control 0.01 ± 0.002
# Protocol: (§1) High concentrations of BAs that inhibit ENT-mediated Ado transport could lead to an increase in extracellular Ado levels and therefore impact cell surface AdoR signaling.
# (§2) PKC activity was measured using PKC kinase activity kit (ADI-EKS-420A) purchased from Enzo Biochem. IP3 levels were quantified using an IP3 (Inositol Triphosphate) ELISA Kit (EKF58173) supplied by Biomatik Corporation.
# [1] = Cholestatic mouse model: liver CA, 13C-Ado and total Ado by LC/MS-MS; type: in vivo; details: includes endogenous Ado
# Protocol: We also examined the total Ado content (includes endogenous Ado) in the harvested mouse livers using LC‒MS‒MS.
# Adenosine and ^13C-Ado concentrations were determined in liver tissue samples using a targeted LC‒MS/MS method. The liver samples (∼50 mg) were homogenized with 80% methanol and spiked with 1 μg/ml reserpine as an internal standard. The samples were thoroughly vortexed for 30 s and then centrifuged at 20,000g for 10 min. The supernatant was collected in labeled Eppendorf tubes, and 15 μl of each sample was injected into the LC‒MS/MS system. […] The operational mass spectrometric parameters included a capillary voltage of 4.5 kV; sheath gas of 35 arbitrary units; auxiliary gas of 10 arbitrary units; sweep gas of two arbitrary units; ion transfer tube temperature of 350 °C; vaporizer temperature of 450 °C; dwell time of 50 ms per transition, and collision-induced dissociation gas of 1.5 mTorr. The collision energy was set at 20 V for both Ado and ^13C-Ado, whereas it was set to 38 V for reserpine. Chromatographic separation was performed on a Scherzo SMC18 column (150 × 4.6 mm; 3 μm particle size) from Imtakt. […]
# Two hours after the injection, mouse livers were harvested, and the amount of ^13C-Ado uptake in the liver was quantified via LC–MS-MS. […]
# PKA = PKA activity in CA-treated HeLa cells; type: cell-based; details: 100 μM CA, 14 h; control 0.27 ± 0.016
# IP3 = IP3 levels in CA-treated HeLa cells; type: cell-based; details: 100 μM CA, 14 h; control 0.011 ± 0.0004
# Protocol: as §1, §2
smiles,measurement,setting,value
"C[C@H](CCC(=O)O)[C@H]1CC[C@H]2[C@@H]3[C@H](O)C[C@@H]4C[C@H](O)CC[C@]4(C)[C@H]3C[C@H](O)[C@]12C [CA, cholic acid]",cAMP levels in total HeLa cell lysate,cAMP,1.28 ± 0.04 pMol/μg protein
same,PKC activity in HeLa cells,PKC,0.02 ± 0.0001 U/μg protein
same,reduction in the total Ado level in liver compared with control mice,[1],~12%
same,PKA activity in HeLa cells,PKA,0.54 ± 0 U/μg protein
same,IP3 levels in HeLa cells,IP3,0.023 ± 0.0006 μg/μg protein
